The source of these data is patent publication US6218393A, “Anthranilic acid derivatives as multi drug resistance modulators” (priority 1997, dated 2001).

The experiment relates to AR 1.0 cells. In words: Drug accumulation assay: daunorubicin accumulation in AR 1.0 cells. The experiment is classed as cell-based. The settings on record: Mus musculus, 100% = accumulation with verapamil 100 μM, 1 hr, 37° C. Here is the method: The EMT6 mouse mammary carcinoma cell line and the MDR resistant subline AR 1.0 were cultured in RPMI 1640 medium containing 10% foetal calf serum and 2 mM glutamine at 37° C. in 5% CO2. Cells were passaged between 1 in 200 and 1 in 2000 in the case of the parental cell line and between 1 in 20 and 1 in 200 in the case of the MDR resistant subline, after trypsinisation (0.25% trypsin, 0.2 gl^-1, EDTA).
AR 1.0 cells were seeded 48 hours prior to assay into 96 well opaque culture plates (Canberra Packard).

Take `COc1cc2c(cc1OC)CN(CCNC(=O)c1cc3ccccc3cc1NC(=O)c1ccc(C(C)C)cc1)CC2` [compound 9410, 3-(4-Isopropyl-benzoylamino)-naphthalene-2-carboxylic acid [2-(6,7-dimethoxy-3,4-dihydro-1H-isoquinolin-2-yl)-ethyl]-amide]: it took 3000 nM to reach half-maximal inhibition (IC50).
On to `COc1cc2c(cc1OC)CN(CCNC(=O)c1ccccc1NC(=O)c1ccccn1)CC2` [compound 9377, Pyridine-2-carboxylic acid {2-[2-(6,7-dimethoxy-3,4-dihydro-1H-isoquinolin-2-yl)-ethylcarbamoyl]-phenyl}-amide], for which it took 5500 nM to reach half-maximal inhibition (IC50). This IC50 lies about 1.8-fold higher than the previous one.
To `COc1ccc(CN(C)CCc2ccc(NC(=O)c3cc(F)c(F)cc3NC(=O)c3cnc4ccccc4c3)cc2)cc1OC` [compound 9667, Quinoline-3-carboxylic acid [2-(4-{2-[(3,4-dimethoxy-benzyl)-methyl-amino]-ethyl}-phenylcarbamoyl)-4,5-difiuoro-phenyl]-amide] belongs 76 nM; to `COc1ccc(C(=O)Nc2ccccc2C(=O)Nc2ccc(CCN3CCc4cc(OC)c(OC)cc4C3)cc2)cn1` [compound 9582, N-(2-{4-[2-(6,7-Dimethoxy-3,4-dihydro-1H-isoquinolin-2-yl)-ethyl]-phenylcarbamoyl}-phenyl)-6-methoxy-nicotinamide], 1270 nM; to `COc1cc2c(cc1OC)CN(CCc1ccc(NC(=O)c3ccccc3NC(=O)c3cc4ccccc4nc3Cl)cc1)CC2` [compound 9591, 2-Chloro-quinoline-3-carboxylic acid (2-{4-[2-(6,7-dimethoxy-3,4-dihydro-1H-isoquinolin-2-yl)-ethyl]-phenylcarbamoyl}-phenyl)-amide], 425 nM.
Next, `COc1cc2c(cc1OC)CN(CCNC(=O)c1ccccc1NC(=O)c1ccncc1)CC2` [compound 9384, N-{2-[2-(6,7-Dimethoxy-3,4-dihydro-1H-isoquinolin-2-yl)-ethylcarbamoyl]-phenyl}-isonicotinamide]: over 10000 nM; `COc1cc2c(cc1OC)CN(CCc1ccc(NC(=O)c3ccccc3NC(=O)c3cc4ccccc4[nH]3)cc1)CC2` [compound 9515, 1H-Indole-2-carboxylic acid (2-{4-[2-(6,7-dimethoxy-3,4-dihydro-1H-isoquinolin-2-yl)-ethyl}-phenylcarbamoyl}-phenyl)-amide]: 1200 nM; `COc1cc2c(cc1OC)CN(CCNC(=O)c1cccc(C)c1NC(=O)c1ccc(C(C)C)cc1)CC2` [compound 9398, 2-(4-Isopropyl-benzoylamino)-N-[2-(6,7-dimethoxy-3,4-dihydro-1H-isoquinolin-2-yl)-ethyl]-3-methyl-benzamide]: 1500 nM.
Next, `COc1ccc(CN(C)CCc2ccc(NC(=O)c3ccc(C)cc3NC(=O)c3cnc4ccccc4c3)cc2)cc1OC` [compound 9668]: 87 nM.
Consider `COc1cc2c(cc1OC)CN(CCc1cccc(NC(=O)c3ccccc3NC(=O)c3cnc(C)cn3)c1)CC2` [compound 9653, 5-Methyl-pyrazine-2-carboxylic acid (2-{3-[2-(6,7-dimethoxy-3,4-dihydro-1H-isoquinolin-2-yl)-ethyl]-phenylcarbamoyl}-phenyl)-amide], for which the IC50 (commonly the concentration needed to halve the response being measured) was 490 nM.
Next, `COc1cc2c(cc1OC)CN(CCc1ccc(NC(=O)c3ccccc3NC(=O)c3ccc(F)cc3F)cc1)CC2` [compound 9513, 2-(2,4-Difluoro-benzoylamino)-N-{4-[2-(6,7-dimethoxy-3,4-dihydro-1H-isoquinolin-2-yl)-ethyl]-phenyl}-benzamide]: 200 nM; `COc1cc2c(cc1OC)CN(CCc1ccc(NC(=O)c3ccccc3NC(=O)c3cccc(N(C)C)c3)cc1)CC2` [compound 9556, 2-(3-Dimethylamino-benzoylamino)-N-{4-[2-(6,7-dimethoxy-3,4-dihydro-1H-isoquinolin-2-yl)-ethyl]-phenyl}-benzamide]: 860 nM.
As for `O=C(Nc1ccccc1C(=O)Nc1ccc(CCN2CCc3ccc(Cl)c(Cl)c3C2)cc1)c1cnc2ccccc2c1` [compound 9629, Quinoline-3-carboxylic acid (2-{4-[2-(7,8-dichloro-3,4-dihydro-1H-isoquinolin-2-yl)-ethyl]-phenylcarbamoyl}-phenyl)-amide], the IC50 was over 10000 nM.
Turning to `COc1cc(CCN2CCc3cc(OC)c(OC)cc3C2)ccc1NC(=O)c1ccccc1NC(=O)c1cnc(C)cn1` [compound 9657, 5-Methyl-pyrazine-2-carboxylic acid (2-{4-[2-(6,7-dimethoxy-3,4-dihydro-1H-isoquinolin-2-yl)-ethyl]-2-methoxy-phenylcarbamoyl}-phenyl)-amide], the IC50 worked out at 343 nM.
As for `COc1cc2c(cc1OC)CN(CCNC(=O)c1ccc(Cl)cc1NC(=O)c1ccc(C(C)C)cc1)CC2` [compound 9350, 2-(4-Isopropyl-benzoylamino)-N-[2-(6,7-dimethoxy-3,4-dihydro-1H-isoquinolin-2-yl)-ethyl]-4-chioro-benzamide], the IC50 came to 800 nM.
Next, `COc1cc2c(cc1OC)CN(CCNC(=O)c1cccc(OC)c1NC(=O)c1ccc(C(C)C)cc1)CC2` [compound 9399, 2-(4-Isopropyl-benzoylamino)-N-[2-(6,7-dimethoxy-3,4-dihydro-1H-isoquinolin-2-yl)-ethyl]-3-methoxy-benzamide]: 5000 nM; `COc1cc2c(cc1OC)CN(CC(C)c1ccc(NC(=O)c3ccccc3NC(=O)c3cnc4ccccc4c3)cc1)CC2` (centres unmarked) [compound 9654, Quinoline-3-carboxylic acid (2-{4-[2-(6,7-dimethoxy-3,4-dihydro-1H-isoquinolin-2-yl)-1-methyl-ethyl]-phenylcarbamoyl}-phenyl)-amide]: 135 nM; `COc1cc2c(cc1OC)CN(CCc1ccc(NC(=O)c3ccccc3NC(=O)c3ccoc3)cc1)CC2` [compound 9526, Furan-3-carboxylic acid (2-{4-[2-(6,7-dimethoxy-3,4-dihydro-1H-isoquinolin-2-yl)-ethyl]-phenylcarbamoyl}-phenyl)-amide]: 1400 nM.
In turn, `CCCCOc1cc(CN(C)CCc2ccc(NC(=O)c3cc(OC)c(OC)cc3NC(=O)c3cnc4ccccc4c3)cc2)ccc1OC` [compound 9656, Quinoline-3-carboxylic acid [2-(4-{2-[(3-butoxy-4-methoxy-benzyl)-methyl-amino]-ethyl}-phenylcarbamoyl)-4,5-dimethoxy-phenyl]-amide] yielded a concentration for half-maximal inhibition (IC50) of 188 nM.
As for `O=C(Nc1ccccc1C(=O)Nc1ccc(CCN2CCc3cc(Cl)c(Cl)cc3C2)cc1)c1cnc2ccccc2c1` [compound 9628, Quinoline-3-carboxylic acid (2-{4-[2-(6,7-dichloro-3,4-dihydro-1H-isoquinolin-2-yl)-ethyl]-phenylcarbamoyl}-phenyl)-amide], the IC50 was 2270 nM.
`COc1cc2c(cc1OC)CN(CCNC(=O)c1ccccc1NC(=O)c1ccc3c(c1)OCO3)CC2` [compound 9302, Benzo[1,3]dioxole-5-carboxylic acid {2-[2-(6,7-dimethoxy-3,4-dihydro-1H-isoquinolin-2-yl)-ethylcarbamoyl]-phenyl}-amide] yielded an IC50 of 5000 nM.
To `COc1cc2c(cc1OC)CN(CCNC(=O)c1cccc(Cl)c1NC(=O)c1ccc(C(C)C)cc1)CC2` [compound 9401, 2-(4-Isopropyl-benzoylamino)-N-[2-(6,7-dimethoxy-3,dihydro-1H-isoquinolin-2-yl)-ethyl]-3-chioro-benzamide] belongs 3000 nM.
The molecule `COc1cc(CCN2CCc3cc(OC)c(OC)cc3C2)ccc1NC(=O)c1ccccc1NC(=O)c1cnccn1` [compound 9659, Pyrazine-2-carboxylic acid (2-{4-[2-(6,7-dimethoxy-3,4-dihydro-1H-isoquinolin-2-yl)-ethyl]-2-methoxy-phenylcarbamoyl}-phenyl)-amide] yielded an IC50 of 1380 nM.
The molecule `COc1cc2c(cc1OC)CN(CCc1ccc(NC(=O)c3ccccc3NC(=O)c3ccccc3C(F)(F)F)cc1)CC2` [compound 9523, 2-(2-Trifluoromethyl-benzoylamino)-N-{4-[2-(6,7-dimethoxy-3,4-dihydro-1H-isoquinolin-2-yl)-ethyl]-phenyl}-benzamide] showed an IC50 of 1600 nM.
To `COc1cc2c(cc1OC)CN(CCc1ccc(NC(=O)c3c(C)cccc3NC(=O)c3ccccc3)cc1)CC2` [compound 9512, 2-Benzoylamino-N-{4-[2-(617-dimethoxy-3,4-dihydro-1H-isoquinolin-2-yl)-ethyl]-phenyl}-6-methyl-benzamide] belongs 3900 nM; to `COc1cc2c(cc1OC)CN(CCc1ccc(NC(=O)c3sc4nccnc4c3NC(=O)c3cnc4ccccc4c3)cc1)CC2` [compound 9666, Quinoline-3-carboxylic acid (6-{4-[2-(6,7-dimethoxy-3,4-dihydro-1H-isoquinolin-2-yl)-ethyl]-phenylcarbamoyl}-thieno[2,3-b]pyrazin-7-yl)-amide], 8670 nM.
To `COc1cc2c(cc1OC)CN(CCc1ccc(NC(=O)c3ccccc3NC(=O)c3cnc4ccccc4c3O)cc1)CC2` [compound 9606, 4-Hydroxy-quinoline-3-carboxylic acid (2-{4-[2-(6,7-dimethoxy-3,4-dihydro-1H-isoquinolin-2-yl)-ethyl]-phenylcarbamoyl}-phenyl)-amide] belongs over 10000 nM; to `COc1cc2c(cc1OC)CN(CCOc1ccc(NC(=O)c3ccccc3NC(=O)c3cnc4ccccc4c3)cc1)CC2` [compound 9623, Quinoline-3-carboxylic acid (2-{4-[2-(6,7-dimethoxy-3,4-dihydro-1H-isoquinolin-2-yl)-ethoxy]-phenylcarbamoyl}-phenyl)-amide], 1890 nM; to `COc1ccc(CN(C)CCc2ccc(NC(=O)c3ccc([N+](=O)[O-])cc3NC(=O)c3cnc4ccccc4c3)cc2)cc1OC` [compound 9677, Quinoline-3-carboxylic acid [2-(4-{2-[(3,4-dimethoxy-benzyl)-methyl-amino]-ethyl}-phenylcarbamoyl)-5-nitro-phenyl]-amide], 169 nM.
